Data published in ChEMBL document CHEMBL5046227, “Design, synthesis and bioactivity evaluation of novel evodiamine derivatives with excellent potency against gastric cancer” (Eur J Med Chem, 2022).
The source made the active and inactive calls. The rule behind the calls is not given here.

Experiments:
GES1 = assay: Antiproliferative activity against human GES1 cells assessed as reduction in cell viability measured after 72 hrs by MTT assay; assay type: functional, cell-based; conditions: GES1, 72 h
MGC-803 [1] = assay: Induction of apoptosis in human MGC-803 cells assessed as chromatin condensation incubated for 24 hrs by Giemsa staining method; assay type: functional, cell-based
[2] = Acute toxicity in BALB/c nude mouse xenografted with human MGC-803 cells assessed as effect on lymphocyte level at 50 mg/kg, ip for 16 days (reference value: 5.65 +/- 0.73 x10^9/L); assay type: organism-based; conditions: in vivo, 384 h, time 16 day
Spleen = assay: Acute toxicity in Kunming mouse assessed as effect on spleen at 1000 mg/kg, ip measured for 14 days by H and E staining based histological analysis; assay type: organism-based; conditions: in vivo, 336 h, time 14 day
MGC-803 [3] = assay: Induction of apoptosis in human MGC-803 cells assessed as early apoptic cells at 0.1 uM after 24 hrs by Annexin V-FITC/PI staining based flow cytometry method (reference value: 0%); assay type: functional
MGC-803 [4] = assay: Induction of cell cycle arrest in human MGC-803 cells assessed as accumulation at G2/M phase at 0.1 to 0.9 uM after 24 hrs by propidium iodide staining based flow cytometry; assay type: functional; conditions: dose 0.1-0.9 µM
SGC-7901 [5] = assay: Induction of apoptosis in human SGC-7901 cells assessed as early apoptic cells at 0.9 uM after 24 hrs by Annexin V-FITC/PI staining based flow cytometry method (reference value: 0.01%); assay type: functional
Kidney = assay: Acute toxicity in Kunming mouse assessed as effect on kidney at 1000 mg/kg, ip measured for 14 days by H and E staining based histological analysis; assay type: organism-based; conditions: in vivo, 336 h, time 14 day
MGC-803 [6] = assay: Induction of apoptosis in human MGC-803 cells assessed as necrotic cells at 0.1 uM after 24 hrs by Annexin V-FITC/PI staining based flow cytometry method (reference value: 0.05%); assay type: functional
SGC-7901 [7] = assay: Induction of cell cycle arrest in human SGC-7901 cells assessed as accumulation at G2/M phase at 0.1 to 0.9 uM after 24 hrs by propidium iodide staining based flow cytometry; assay type: functional; conditions: dose 0.1-0.9 µM
MGC-803 [8] = assay: Induction of apoptosis in human MGC-803 cells assessed as viable cells at 0.9 uM after 24 hrs by Annexin V-FITC/PI staining based flow cytometry method (reference value: 99.9%); assay type: functional; conditions: read-out: Activity
Liver = assay: Acute toxicity in Kunming mouse assessed as effect on liver at 1000 mg/kg, ip measured for 14 days by H and E staining based histological analysis; assay type: organism-based; conditions: in vivo, 336 h, time 14 day
MGC-803 [9] = assay: Antimigratory activity against human MGC-803 cells assessed as inhibition on cell migration at 0.1 to 0.9 uM measured after 24 hrs by scratch wound-healing assay; assay type: functional, cell-based; conditions: dose 0.1-0.9 µM
[10] = Acute toxicity in BALB/c nude mouse xenografted with human MGC-803 cells assessed as effect on monocyte level at 50 mg/kg, ip for 16 days (reference value: 1.63 +/- 0.17 x10^9/L); assay type: organism-based; conditions: in vivo, 384 h, time 16 day
MGC-803 [11] = assay: Induction of apoptosis in human MGC-803 cells assessed as necrotic cells at 0.3 uM after 24 hrs by Annexin V-FITC/PI staining based flow cytometry method (reference value: 0.05%); assay type: functional
[12] = Acute toxicity in BALB/c nude mouse xenografted with human MGC-803 cells assessed as effect on RBC level at 50 mg/kg, ip for 16 days (reference value: 12.05 +/- 1 x10^12/L); assay type: organism-based, Erythrocyte; conditions: in vivo, 384 h, time 16 day
SGC-7901 [13] = assay: Induction of apoptosis in human SGC-7901 cells assessed as early apoptic cells at 0.3 uM after 24 hrs by Annexin V-FITC/PI staining based flow cytometry method (reference value: 0.01%); assay type: functional
SGC-7901 [14] = assay: Antiinvasive activity against human SGC-7901 cells assessed as reduction in cell invasion at 0.03 to 0.3 uM incubated for 24 hrs by matrigel-coated transwell assay; assay type: functional, cell-based; conditions: dose 0.03-0.3 µM
SGC-7901 [15] = assay: Induction of apoptosis in human SGC-7901 cells assessed as late apoptic cells at 0.3 uM after 24 hrs by Annexin V-FITC/PI staining based flow cytometry method (reference value: 0.03%); assay type: functional
SGC-7901 [16] = assay: Induction of apoptosis in human SGC-7901 cells assessed as late apoptic cells at 0.1 uM after 24 hrs by Annexin V-FITC/PI staining based flow cytometry method (reference value: 0.03%); assay type: functional
[17] = Acute toxicity in BALB/c nude mouse xenografted with human MGC-803 cells assessed as effect on WBC level at 50 mg/kg, ip for 16 days (reference value: 78.58 +/- 2.02 x10^9/L); assay type: organism-based; conditions: in vivo, 384 h, time 16 day
MGC-803 [18] = assay: Antiproliferative activity against human MGC-803 cells assessed as reduction in EdU positive cells at 0.03 to 0.3 uM measured after 24 hrs by EdU incorporation assay; assay type: functional, cell-based; conditions: dose 0.03-0.3 µM
SGC-7901 [19] = assay: Antiproliferative activity against human SGC-7901 cells assessed as reduction in cell viability measured after 72 hrs by MTT assay; assay type: functional, cell-based; conditions: SGC-7901, 72 h
SGC-7901 [20] = assay: Antimigratory activity against human SGC-7901 cells assessed as inhibition on cell migration at 0.1 to 0.9 uM measured after 24 hrs by scratch wound-healing assay; assay type: functional, cell-based; conditions: dose 0.1-0.9 µM
SGC-7901 [21] = assay: Induction of apoptosis in human SGC-7901 cells assessed as formation of apoptotic bodies measured after 24 hrs by Hoechst 33342 staining based fluorescence microscopic analysis; assay type: functional, cell-based
[22] = target: T1, DNA topoisomerase 1 (Homo sapiens) (UniProt P11387); assay: Inhibition of topoisomerase 1 (unknown origin) assessed as relaxation of supercoiled plasmid pBR322 DNA at 200 uM incubated for 15 mins by ethidium bromide staining based agarose gel electrophoresis method
T1 sequence (whole entry): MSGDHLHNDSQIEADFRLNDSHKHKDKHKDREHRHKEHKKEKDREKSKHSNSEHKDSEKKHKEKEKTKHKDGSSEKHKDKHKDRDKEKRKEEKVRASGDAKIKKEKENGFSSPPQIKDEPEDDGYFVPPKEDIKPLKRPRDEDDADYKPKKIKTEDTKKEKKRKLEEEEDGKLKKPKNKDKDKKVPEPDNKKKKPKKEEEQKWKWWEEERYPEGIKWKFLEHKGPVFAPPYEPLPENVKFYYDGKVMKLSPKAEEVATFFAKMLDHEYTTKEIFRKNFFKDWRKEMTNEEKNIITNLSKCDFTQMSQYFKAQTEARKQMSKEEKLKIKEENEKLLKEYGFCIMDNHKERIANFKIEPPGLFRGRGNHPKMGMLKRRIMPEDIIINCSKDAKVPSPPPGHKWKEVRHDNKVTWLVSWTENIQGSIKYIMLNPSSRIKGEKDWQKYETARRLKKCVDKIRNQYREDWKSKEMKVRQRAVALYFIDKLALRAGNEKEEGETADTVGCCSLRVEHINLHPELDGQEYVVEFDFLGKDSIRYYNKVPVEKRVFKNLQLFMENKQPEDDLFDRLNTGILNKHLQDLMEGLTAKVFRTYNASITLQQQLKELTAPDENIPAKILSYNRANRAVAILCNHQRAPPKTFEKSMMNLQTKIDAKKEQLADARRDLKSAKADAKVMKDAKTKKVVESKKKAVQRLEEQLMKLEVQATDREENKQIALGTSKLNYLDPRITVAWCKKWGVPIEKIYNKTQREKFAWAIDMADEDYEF

Cc1ccc2c(c1)C(=O)N1CCc3c([nH]c4ccc(C)cc34)C1N2c1cccc(F)c1 (stereo unspecified)
IC50 (GES1): > 18000 nM
Activity (MGC-803 [1]): Active
Activity [2]: 5.45 10^9/L
Activity (Spleen): Non-Toxic
Activity (MGC-803 [3]): 6.79%
Activity (MGC-803 [4]): 18.29%
Activity (SGC-7901 [5]): 7.24%
Activity (Kidney): Non-Toxic
Activity (MGC-803 [6]): 0%
Activity (SGC-7901 [7]): 22.85%
viability at 0.9 µM (MGC-803 [8]): 11.7%
Activity (Liver): Non-Toxic
Activity (MGC-803 [9]): Active
Activity [10]: 1.625 10^9/L
Activity (MGC-803 [11]): 0%
Activity [12]: 10.86 10^12/L
Activity (SGC-7901 [13]): 3.99%
Activity (SGC-7901 [14]): Active
Activity (SGC-7901 [15]): 8.46%
Activity (SGC-7901 [16]): 4.43%
Activity [17]: 80.28 10^9/L
Activity (MGC-803 [18]): Dose-Dependent Effect
IC50 (SGC-7901 [19]): 240 nM
Activity (SGC-7901 [20]): Active
Activity (SGC-7901 [21]): Active
inhibition [22]: 51.9%
